Activity calls are given as the source filed them. The rule behind the calls is not given here.
Columns and labels:
[1] = tested on: MIA PaCa-2; experiment: Cytotoxicity against human MIA PaCa-2 cells harboring KRAS G12C mutant assessed as cell growth inhibition incubated for 24 hrs by MTT assay; format: functional, cell-based; conditions: MIA PaCa-2, 24 h
[2] = molecular target: GTPase KRas (Homo sapiens) (UniProt P01116); experiment: Inhibition of KRAS in human PANC-1 cells at 2.5 uM incubated for 24 hrs by Western blot analysis; format: cell-based
[3] = Cytotoxicity against human PANC-1 cells […] assessed as cell growth inhibition incubated for 24 hrs by MTT assay; format: functional, cell-based; conditions: PANC-1, 24 h
[4] = tested on: PANC-1; experiment: Cytotoxicity against human PANC-1 cells harboring KRAS G12D mutant assessed as cell growth inhibition incubated for 24 hrs by MTT assay; format: functional, cell-based; conditions: PANC-1, 24 h
[5] = tested on: NCM460; experiment: Cytotoxicity against human NCM460 cells harboring wild-type KRAS assessed as cell growth inhibition incubated for 24 hrs by MTT assay; format: functional, cell-based; conditions: NCM460, 24 h
[6] = molecular target: GTPase KRas (Homo sapiens) (UniProt P01116); experiment: Inhibition of KRAS in human MIA PaCa-2 cells at 2.5 uM incubated for 24 hrs by Western blot analysis; format: cell-based

GTPase KRas (Homo sapiens), sequence (P01116 whole entry, looked up): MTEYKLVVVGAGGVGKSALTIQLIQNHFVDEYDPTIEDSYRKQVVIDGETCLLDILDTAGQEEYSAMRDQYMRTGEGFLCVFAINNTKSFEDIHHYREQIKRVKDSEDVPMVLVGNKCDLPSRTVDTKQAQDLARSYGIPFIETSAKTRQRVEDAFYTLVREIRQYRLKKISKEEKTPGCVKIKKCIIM

Row | inhibition [2] | inhibition [6] | Compound | IC50 [1] [µM] | IC50 [3] [µM] | IC50 [4] [µM] | IC50 [5] [µM]
1 | Active | Active | CCN(CC)c1ccc2cc(/C=C/c3ccc4cc(F)c(NCCCN(C)C)cc4[n+]3C)c(=O)oc2c1 | 8.6 | > 40 | 9 | > 40
2 |  |  | CCN(CC)c1ccc2cc(/C=C/c3ccc4cc(F)c(N5CCCCC5)cc4[n+]3C)c(=O)oc2c1 | 11.4 | > 40 | 20.6 | > 40
3 |  |  | CCN(CC)c1ccc2cc(/C=C/c3ccc4cc(F)c(NCCc5nc6ccccc6[nH]5)cc4[n+]3C)c(=O)oc2c1 | 4 | > 40 | 19.2 | > 40
4 |  |  | CCN(CC)c1ccc2cc(/C=C/c3ccc4cc(F)c(NCc5ccccc5C)cc4[n+]3C)c(=O)oc2c1 | < 1.3 | 4.6 | 5.9 | 18.7
5 |  |  | CCN(CC)c1ccc2cc(/C=C/c3cc(NCCCn4ccnc4)c4cc(F)c(NCCCn5ccnc5)cc4[n+]3C)c(=O)oc2c1 | 33.2 | > 40 | > 40 | > 40
6 |  |  | CCN(CC)c1ccc2cc(/C=C/c3cc(N4CCN(C)CC4)c4cc(F)c(NCc5cn(CCC(=O)O)nn5)cc4[n+]3C)c(=O)oc2c1 | > 40 | > 40 | > 40 | > 40
7 |  |  | CCN(CC)c1ccc2cc(/C=C/c3cc(N4CCN(C)CC4)c4cc(F)c(NCc5cn(CCCN6CCCC6)nn5)cc4[n+]3C)c(=O)oc2c1 | > 40 | > 40 | > 40 | > 40
8 |  |  | CCN(CC)c1ccc2cc(/C=C/c3ccc4cc(F)c(N5CCN(Cc6cn(CCC(=O)O)nn6)CC5)cc4[n+]3C)c(=O)oc2c1 | 12.6 | > 40 | > 40 | > 40
9 |  |  | CCN(CC)c1ccc2cc(/C=C/c3cc(N4CCN(C)CC4)c4cc(F)c(NCc5cn(CCCN(C)C)nn5)cc4[n+]3C)c(=O)oc2c1 | > 40 | > 40 | 35.2 | > 40
10 |  |  | CCN(CC)c1ccc2cc(/C=C/c3ccc4cc(F)c(N5CCN(Cc6cn([C@@H]7O[C@H](CO)[C@@H](O)[C@H](O)[C@H]7O)nn6)CC5)cc4[n+]3C)c(=O)oc2c1 | > 40 | > 40 | > 40 | > 40
11 |  |  | CCN(CC)c1ccc2cc(/C=C/c3ccc4cc(F)c(Nc5ccc(N6CCN(C)CC6)nc5)cc4[n+]3C)c(=O)oc2c1 | 9 | > 40 | > 40 | 10.4
12 | Active | Active | CCN(CC)c1ccc2cc(/C=C/c3cc(N4CCCN(C)CC4)c4cc(F)c(N5CCCN(C)CC5)cc4[n+]3C)c(=O)oc2c1 | 10 | > 40 | 11.5 | > 40
13 |  |  | CCN(CC)c1ccc2cc(/C=C/c3cc(N4CCN(C)CC4)c4cc(F)c(NCc5cn([C@@H]6O[C@H](CO)[C@@H](O)[C@H](O)[C@H]6O)nn5)cc4[n+]3C)c(=O)oc2c1 | > 40 | > 40 | > 40 | > 40
14 |  |  | CCN(CC)c1ccc(Nc2cc3c(ccc(/C=C/c4cc5ccc(N(CC)CC)cc5oc4=O)[n+]3C)cc2F)cc1 | < 13 | < 1.3 | < 1.3 | < 1.3
15 |  |  | CCN(CC)c1ccc2cc(/C=C/c3cc(N4CCN(C)CC4)c4cc(F)c(N5CCN(C)CC5)cc4[n+]3C)c(=O)oc2c1 | 16 | > 40 | 26.4 | > 40
16 |  |  | CCN(CC)CCCn1cc(CN2CCN(c3cc4c(ccc(/C=C/c5cc6ccc(N(CC)CC)cc6oc5=O)[n+]4C)cc3F)CC2)nn1 | > 40 | > 40 | > 40 | > 40
17 |  |  | CCN(CC)c1ccc2cc(/C=C/c3cc(N4CCN(C)CC4)c4cc(F)c(NCc5cn(CCc6cccs6)nn5)cc4[n+]3C)c(=O)oc2c1 | 9 | > 40 | 19.2 | > 40
18 |  |  | CCN(CC)c1ccc2cc(/C=C/c3ccc4cc(F)c(N5CCN(Cc6cn(CCCN7CCCCC7)nn6)CC5)cc4[n+]3C)c(=O)oc2c1 | 26.8 | > 40 | > 40 | > 40
19 |  |  | CCN(CC)c1ccc2cc(/C=C/c3ccc4cc(F)c(NCCCn5ccnc5)cc4[n+]3C)c(=O)oc2c1 | 13.4 | > 40 | > 40 | > 40
20 |  |  | CCN(CC)c1ccc2cc(/C=C/c3ccc4cc(F)c(N5CCN(Cc6cn(CCc7cccs7)nn6)CC5)cc4[n+]3C)c(=O)oc2c1 | 6.8 | > 40 | 23.8 | > 40
21 |  |  | CCN(CC)c1ccc2cc(/C=C/c3cc(NCCCN4CCOCC4)c4cc(F)c(NCCCN5CCOCC5)cc4[n+]3C)c(=O)oc2c1 | 4.6 | > 40 | 29 | > 40
22 |  |  | CCN(CC)c1ccc2cc(/C=C/c3ccc4cc(F)c(Nc5ccc6nc(C)[nH]c6c5)cc4[n+]3C)c(=O)oc2c1 | 12 | > 40 | 13 | 14.8

Row | inhibition [2] | inhibition [6] | Compound | IC50 [1] [µM] | IC50 [3] [µM] | IC50 [4] [µM] | IC50 [5] [µM]
23 |  |  | CCN(CC)c1ccc2cc(/C=C/c3ccc4cc(F)c(N5CCOCC5)cc4[n+]3C)c(=O)oc2c1 | 29.6 | > 40 | 13.2 | > 40
24 |  |  | CCN(CC)c1ccc2cc(/C=C/c3ccc4cc(F)c(N5CCN(C(=O)C(C)C)CC5)cc4[n+]3C)c(=O)oc2c1 | 3.4 | > 40 | 39.6 | > 40
25 |  |  | CCN(CC)c1ccc2cc(/C=C/c3ccc4cc(F)c(NCCCOC(C)C)cc4[n+]3C)c(=O)oc2c1 | 1.5 | 6 | 2.9 | 23.2
26 |  |  | CCN(CC)c1ccc2cc(/C=C/c3cc(NCCCN4CCCC4)c4cc(F)c(NCCCN5CCCC5)cc4[n+]3C)c(=O)oc2c1 | > 40 | > 40 | > 40 | > 40
27 |  |  | CCN(CC)c1ccc2cc(/C=C/c3ccc4cc(F)c(N5CCN(C(C)=O)CC5)cc4[n+]3C)c(=O)oc2c1 | 5.6 | > 40 | 32.6 | > 40
28 |  |  | CCN(CC)c1ccc2cc(/C=C/c3cc(N4CCN(C)CC4)c4cc(F)c(NCc5cn(CCC(=O)OC)nn5)cc4[n+]3C)c(=O)oc2c1 | > 40 | > 40 | > 40 | > 40
29 |  |  | CCN(CC)c1ccc2cc(/C=C/c3ccc4cc(F)c(NCC5CCOCC5)cc4[n+]3C)c(=O)oc2c1 | 10.8 | 11.3 | 32.4 | > 40
30 |  |  | CCN(CC)c1ccc2cc(/C=C/c3cc(N4CCN(C)CC4)c4cc(F)c(NCc5cn(CCCN6CCCCC6)nn5)cc4[n+]3C)c(=O)oc2c1 | > 40 | > 40 | > 40 | > 40
31 |  |  | CCN(CC)CCCn1cc(CNc2cc3c(cc2F)c(N2CCN(C)CC2)cc(/C=C/c2cc4ccc(N(CC)CC)cc4oc2=O)[n+]3C)nn1 | > 40 | > 40 | > 40 | > 40
32 |  |  | CCN(CC)c1ccc2cc(/C=C/c3ccc4cc(F)c(N5CCN(Cc6cn(CCCN7CCOCC7)nn6)CC5)cc4[n+]3C)c(=O)oc2c1 | 23.4 | > 40 | > 40 | > 40
33 |  |  | CCN1CCN(c2ccc(Nc3cc4c(ccc(/C=C/c5cc6ccc(N(CC)CC)cc6oc5=O)[n+]4C)cc3F)cc2)CC1 | 8.8 | > 40 | 15.2 | > 40
34 |  |  | CCN(CC)c1ccc2cc(/C=C/c3ccc4cc(F)c(NCCOCCO)cc4[n+]3C)c(=O)oc2c1 | 9.8 | > 40 | > 40 | > 40
35 |  |  | CCN(CC)c1ccc2cc(/C=C/c3ccc4cc(F)c(N5CCN(Cc6cn(CCCN7CCCC7)nn6)CC5)cc4[n+]3C)c(=O)oc2c1 | > 40 | 13 | 19.8 | > 40
36 |  |  | CCN(CC)c1ccc2cc(/C=C/c3ccc4cc(F)c(NCCc5cccs5)cc4[n+]3C)c(=O)oc2c1 | < 1.3 | < 1.3 | < 1.3 | 4.4
37 |  |  | CCN(CC)c1ccc2cc(/C=C/c3ccc4cc(F)c(N5CCN(Cc6cn(CCCO)nn6)CC5)cc4[n+]3C)c(=O)oc2c1 | > 40 | > 40 | > 40 | > 40
38 |  |  | CCN(CC)c1ccc2cc(/C=C/c3cc(NCCN4CCCC4)c4cc(F)c(NCCN5CCCC5)cc4[n+]3C)c(=O)oc2c1 | 17 | > 40 | > 40 | > 40
39 |  |  | CCN(CC)c1ccc2cc(/C=C/c3ccc4cc(F)c(NCCO)cc4[n+]3C)c(=O)oc2c1 | 7.2 | > 40 | 38.2 | > 40
40 |  |  | CCN(CC)c1ccc2cc(/C=C/c3ccc4cc(F)c(N5CCN(Cc6cn(CCCN(C)C)nn6)CC5)cc4[n+]3C)c(=O)oc2c1 | > 40 | > 40 | > 40 | > 40
41 |  |  | CCCCN(CCCC)CCCn1cc(CN2CCN(c3cc4c(ccc(/C=C/c5cc6ccc(N(CC)CC)cc6oc5=O)[n+]4C)cc3F)CC2)nn1 | 7 | > 40 | 26 | > 40
42 |  |  | CCN(CC)c1ccc2cc(/C=C/c3ccc4cc(F)c(NCc5ccccc5C(F)(F)F)cc4[n+]3C)c(=O)oc2c1 | < 1.3 | 3 | 7 | 12.2
43 |  |  | CCN(CC)c1ccc2cc(/C=C/c3ccc4cc(F)c(NCCN(C(C)C)C(C)C)cc4[n+]3C)c(=O)oc2c1 | 1.3 | 13 | 3.4 | 15
44 |  |  | CCN(CC)c1ccc2cc(/C=C/c3cc(N4CCN(C)CC4)c4cc(F)c(NCc5cn(CCCN6CCOCC6)nn5)cc4[n+]3C)c(=O)oc2c1 | > 40 | > 40 | > 40 | > 40

Source: ChEMBL document CHEMBL5537197, “Discovery of Novel Coumarin-quinolinium Derivatives as Pan-KRAS Translation Inhibitors by Targeting 5'-UTR RNA G-Quadruplexes” (J Med Chem, 2024)
